Source: patent US12185723B2, “Herbicidally active 3-phenylisoxazoline-5-carboxamides of s-containing cyclopentenylcarboxylic esters” (Bayer Aktiengesellschaft, priority 2019, dated 2025)

Assays:
Format in all cases: in vivo
Veronica persica = assay: Post-emergence herbicidal action against VERPE; settings: 20 g a.i./ha
Protocol: (§1) Post-Emergence Herbicidal Action Against Harmful Plants and Crop Plant Compatibility Seeds of monocotyledonous and dicotyledonous weeds and crop plants are placed in sandy loam in plastic or wood-fibre pots, covered with soil and cultivated in a greenhouse under controlled growth conditions. 2 to 3 weeks after sowing, the test plants are treated at the one-leaf stage. The compounds of the invention, formulated in the form of wettable powders (WP) or as emulsion concentrates (EC), are then sprayed onto the green parts of the plants as aqueous suspension or emulsion with addition of 0.5% additive at a water application rate of 600 l/ha (converted). After the test plants have been kept in the greenhouse under optimum growth conditions for about 3 weeks, the activity of the preparations is rated visually in comparison to untreated controls. For example, 100% activity=the plants have died, 0% activity=like control plants. [table]

Polygonum convolvulus = assay: Post-emergence herbicidal action against POLCO; settings: 20 g a.i./ha
Protocol: as §1

Alopecurus myosuroides = assay: Post-emergence herbicidal action against ALOMY; settings: 20 g a.i./ha, visual rating about 3 weeks after treatment
Protocol: as §1

Avena fatua = assay: Post-emergence herbicidal action against AVEFA; settings: 20 g a.i./ha, visual rating about 3 weeks after treatment
Protocol: as §1

Echinochloa crus-galli = assay: Post-emergence herbicidal action against ECHCG; settings: 20 g a.i./ha, visual rating about 3 weeks after treatment
Protocol: as §1

DIGSA = assay: Post-emergence herbicidal action against DIGSA; settings: 20 g a.i./ha, visual rating about 3 weeks after treatment
Protocol: as §1, with “plants.” for “plants. [table]”

Pharbitis purpurea = assay: Post-emergence herbicidal action against PHBPU; settings: 20 g a.i./ha
Protocol: as §1

Amaranthus retroflexus = assay: Post-emergence herbicidal action against AMARE; settings: 20 g a.i./ha
Protocol: as §1

Setaria viridis = assay: Post-emergence herbicidal action against SETVI; settings: visual rating about 3 weeks after treatment
Protocol: as §1

Lolium rigidum = assay: Post-emergence herbicidal action against LOLRI; settings: 20 g a.i./ha, visual rating about 3 weeks after treatment
Protocol: as §1

Abutilon theophrasti = assay: Post-emergence herbicidal action against ABUTH; settings: 20 g a.i./ha, visual rating about 3 weeks after treatment
Protocol: as §1

Structure (SMILES) | Herbicidal action against [%] VERPE (Veronica persica) | Herbicidal action against [%] POLCO (Polygonum convolvulus) | Herbicidal action against [%] ALOMY (Alopecurus myosuroides) | Herbicidal action against [%] AVEFA (Avena fatua) | Herbicidal action against [%] ECHCG (Echinochloa crus-galli) | Herbicidal action against [%] DIGSA (DIGSA) | Herbicidal action against [%] PHBPU (Pharbitis purpurea) | Herbicidal action against [%] AMARE (Amaranthus retroflexus) | Herbicidal action against [%] SETVI (Setaria viridis; 20 g a.i./ha) | Herbicidal action against [%] LOLRI (Lolium rigidum) | Herbicidal action against [%] SETVI (Setaria viridis; 80 g a.i./ha) | Herbicidal action against [%] ABUTH (Abutilon theophrasti)
CSCCOC(=O)C1C=CC(NC(=O)C2(CCl)CC(c3cc(F)cc(C#N)c3)=NO2)C1 (stereo not drawn) [Example I-58] | 80% | 80% | 90% | 80% | 80% |  |  |  |  |  |  | 
COC1(C(=O)NC2C=CC(C(=O)OCCSC)C2)CC(c2cc(C)cc(F)c2)=NO1 (stereo not drawn) [Example I-62] | 90% | 80% | 90% | 80% | 80% | 80% | 80% | 90% | 90% | 90% |  | 
CSCCOC(=O)C1C=CC(NC(=O)C2(C)CC(c3cc(C#N)cc(C#N)c3)=NO2)C1 (stereo not drawn) [Example I-52] | 80% | 80% | 90% | 80% |  |  | 80% |  |  |  |  | 
CC1(C(=O)NC2C=CC(C(=O)OCCS(C)(=O)=O)C2)CC(c2cc(F)cc(F)c2)=NO1 (stereo not drawn) [Example I-14] | 90% |  | 90% | 80% | 80% | 90% | 80% | 90% | 90% | 90% |  | 
CSCCOC(=O)C1C=CC(NC(=O)C2(C3CC3)CC(c3cc(F)cc(F)c3)=NO2)C1 (stereo not drawn) [Example I-27] |  |  |  |  |  |  |  |  |  |  | 90% | 
CSCCOC(=O)C1C=CC(NC(=O)C2(CCl)CC(c3cc(F)cc(F)c3)=NO2)C1 (stereo not drawn) [Example I-60] |  | 80% | 80% | 80% | 80% |  |  | 80% |  | 80% |  | 
C=CC1(C(=O)NC2C=CC(C(=O)OCCSC)C2)CC(c2cccc(F)c2)=NO1 (stereo not drawn) [Example I-35] | 80% | 90% | 90% | 90% | 90% | 90% | 80% | 80% | 90% | 90% |  | 
CC(C)C(=O)SCCOC(=O)C1C=CC(NC(=O)C2(C)CC(c3cc(F)cc(F)c3)=NO2)C1 (stereo not drawn) [Example I-05] | 80% | 80% | 100% |  | 80% | 80% | 80% |  | 80% |  |  | 
CSCCOC(=O)C1C=CC(NC(=O)C2(C)CC(c3cc(C)cc(F)c3)=NO2)C1 (stereo not drawn) [Example I-59] | 80% |  |  |  | 80% | 90% | 80% | 80% |  |  |  | 
C=CCSCCOC(=O)C1C=CC(NC(=O)C2(OC)CC(c3cc(F)cc(F)c3)=NO2)C1 (stereo not drawn) [Example I-26] | 80% | 80% | 90% | 90% | 80% | 90% |  | 80% |  | 90% |  | 80%
CSCCOC(=O)C1C=CC(NC(=O)C2(CO)CC(c3cc(F)cc(F)c3)=NO2)C1 (stereo not drawn) [Example I-70] |  | 80% | 100% | 80% | 90% |  | 80% |  | 90% |  |  | 
CSCCOC(=O)C1C=CC(NC(=O)C2(C)CC(c3cc(Cl)cc(C#N)c3)=NO2)C1 (stereo not drawn) [Example I-72] | 80% | 80% | 90% | 80% | 80% | 90% |  | 80% | 90% | 90% |  | 
CSCCOC(=O)C1C=CC(NC(=O)C2(CF)CC(c3cc(F)cc(F)c3)=NO2)C1 (stereo not drawn) [Example I-74] | 80% |  |  |  | 90% | 90% |  | 80% |  | 90% |  | 90%
CC(=O)CCSCCOC(=O)C1C=CC(NC(=O)C2(C)CC(c3cc(F)cc(F)c3)=NO2)C1 (stereo not drawn) [Example I-15] | 80% | 80% | 90% |  | 80% | 80% |  |  |  | 80% |  | 
CC1(C(=O)NC2C=CC(C(=O)OCCSC3CCCCC3)C2)CC(c2cc(F)cc(F)c2)=NO1 (stereo not drawn) [Example I-03] |  | 80% | 90% |  | 80% | 80% | 80% |  | 80% |  |  | 
C=CC1(C(=O)NC2C=CC(C(=O)OCCSC)C2)CC(c2cc(C)cc(F)c2)=NO1 (stereo not drawn) [Example I-56] |  | 80% | 80% |  |  |  |  |  |  | 80% |  | 
C[S+]([O-])CCOC(=O)C1C=CC(NC(=O)C2(C)CC(c3cccc(F)c3)=NO2)C1 (mixture of isomers) [Example I-61] | 80% |  | 80% |  | 80% |  |  | 80% | 80% |  |  | 
COC1(C(=O)NC2C=CC(C(=O)OCCSC(F)(F)F)C2)CC(c2cc(F)cc(F)c2)=NO1 (stereo not drawn) [Example I-21] | 90% | 80% | 90% | 80% | 90% | 80% |  |  | 80% | 100% |  | 80%
